pIC50: −log10 of the molar value. Some results are limits rather than exact numbers.

This note sets out measurements from patent publication US11739098B2 (BRISTOL-MYERS SQUIBB COMPANY, priority 2017, dated 2023).

Common to all, as to format: cell-based
One test addresses T1, human TLR8 (Homo sapiens, UniProt Q9NR97).
T1 construct: host or cells: HEK-Blue cells (HEK293-derived reporter line)
T1 sequence (Q9NR97 27-1041): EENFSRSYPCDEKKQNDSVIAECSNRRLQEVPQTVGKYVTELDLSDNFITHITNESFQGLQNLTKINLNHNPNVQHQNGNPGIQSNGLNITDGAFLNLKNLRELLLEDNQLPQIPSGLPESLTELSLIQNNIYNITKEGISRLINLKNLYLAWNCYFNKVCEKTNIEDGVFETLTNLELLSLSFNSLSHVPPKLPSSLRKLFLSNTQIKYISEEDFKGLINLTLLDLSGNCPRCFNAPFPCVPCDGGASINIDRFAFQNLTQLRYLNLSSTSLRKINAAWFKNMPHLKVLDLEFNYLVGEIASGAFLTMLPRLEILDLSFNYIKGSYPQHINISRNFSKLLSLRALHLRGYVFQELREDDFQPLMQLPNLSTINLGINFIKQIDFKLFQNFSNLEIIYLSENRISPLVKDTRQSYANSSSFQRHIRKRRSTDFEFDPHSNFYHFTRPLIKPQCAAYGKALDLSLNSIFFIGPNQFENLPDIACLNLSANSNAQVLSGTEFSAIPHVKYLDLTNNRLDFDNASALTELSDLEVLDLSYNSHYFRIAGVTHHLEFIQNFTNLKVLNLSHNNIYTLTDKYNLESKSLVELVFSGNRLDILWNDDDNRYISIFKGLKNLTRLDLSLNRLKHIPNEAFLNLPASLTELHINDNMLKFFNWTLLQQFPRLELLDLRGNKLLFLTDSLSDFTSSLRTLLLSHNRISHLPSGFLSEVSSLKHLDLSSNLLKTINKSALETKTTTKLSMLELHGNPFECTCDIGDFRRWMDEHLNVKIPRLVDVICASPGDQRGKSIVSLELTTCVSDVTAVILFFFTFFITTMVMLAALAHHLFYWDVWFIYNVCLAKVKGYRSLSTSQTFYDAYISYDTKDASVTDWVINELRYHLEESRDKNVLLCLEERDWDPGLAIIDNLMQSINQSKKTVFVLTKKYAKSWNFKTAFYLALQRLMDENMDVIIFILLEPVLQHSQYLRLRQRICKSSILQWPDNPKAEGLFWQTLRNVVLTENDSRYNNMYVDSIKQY
The test can be described thus: TLR8 inhibition reporter assay (HEK-Blue cells, SEAP reporter, R848 stimulation). Particulars: HEK-Blue cells overexpressing human TLR8, SEAP reporter, R848 15.9 μM. An outline of the steps: (§1)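 HEK-Blue cells overexpressing human TLR7, TLR8 or TLR9 (NF-κB/AP-1-driven SEAP) pre-treated 30 min at room temperature with compound (0.05 nM–50 μM), then stimulated with gardiquimod 7.5 μM (TLR7), R848 15.9 μM (TLR8) or ODN2006 5 nM (TLR9). SEAP read colorimetrically after 22 h at 37 °C; % inhibition calculated.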
Background: Reporter assays use an easily measured gene product as a stand-in for the process of interest.

For another test, the target named is T2, human TLR9 (Homo sapiens, UniProt Q9NR96).
T2 construct: host or cells: HEK-Blue cells (HEK293-derived reporter line)
T2 sequence (Q9NR96 26-1032): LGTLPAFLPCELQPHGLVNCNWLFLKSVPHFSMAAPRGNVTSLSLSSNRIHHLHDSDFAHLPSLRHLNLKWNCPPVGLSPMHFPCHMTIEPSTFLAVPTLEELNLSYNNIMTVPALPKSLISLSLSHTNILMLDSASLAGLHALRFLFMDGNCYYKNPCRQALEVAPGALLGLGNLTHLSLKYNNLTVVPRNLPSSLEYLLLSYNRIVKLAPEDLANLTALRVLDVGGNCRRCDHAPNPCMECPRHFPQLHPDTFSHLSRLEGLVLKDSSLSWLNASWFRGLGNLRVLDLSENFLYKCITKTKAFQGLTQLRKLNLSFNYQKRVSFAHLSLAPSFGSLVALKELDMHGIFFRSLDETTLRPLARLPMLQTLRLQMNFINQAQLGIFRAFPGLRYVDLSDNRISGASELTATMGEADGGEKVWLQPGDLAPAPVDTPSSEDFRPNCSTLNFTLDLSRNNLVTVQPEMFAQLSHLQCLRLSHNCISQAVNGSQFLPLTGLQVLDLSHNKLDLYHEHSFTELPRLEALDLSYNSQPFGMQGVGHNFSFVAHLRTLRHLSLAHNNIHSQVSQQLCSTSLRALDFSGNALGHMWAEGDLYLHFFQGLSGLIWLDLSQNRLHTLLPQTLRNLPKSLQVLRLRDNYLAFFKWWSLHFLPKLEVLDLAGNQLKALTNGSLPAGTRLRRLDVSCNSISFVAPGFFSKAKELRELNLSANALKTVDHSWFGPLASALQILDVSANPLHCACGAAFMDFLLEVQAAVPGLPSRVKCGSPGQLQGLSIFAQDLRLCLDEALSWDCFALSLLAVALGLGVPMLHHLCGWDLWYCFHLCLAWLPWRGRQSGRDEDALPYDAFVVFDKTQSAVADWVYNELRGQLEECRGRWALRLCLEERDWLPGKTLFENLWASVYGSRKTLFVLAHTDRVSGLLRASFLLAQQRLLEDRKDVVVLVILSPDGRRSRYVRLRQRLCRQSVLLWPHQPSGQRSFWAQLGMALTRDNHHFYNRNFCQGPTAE
The test can be described thus: TLR9 inhibition reporter assay (HEK-Blue cells, SEAP reporter, ODN2006 stimulation). Particulars: HEK-Blue cells overexpressing human TLR9, SEAP reporter, ODN2006 5 nM. An outline of the steps:
as §1

The target in another test is T3, human TLR7 (Homo sapiens, UniProt Q9NYK1).
T3 construct: host or cells: HEK-Blue cells (HEK293-derived reporter line)
T3 sequence (Q9NYK1 27-1049): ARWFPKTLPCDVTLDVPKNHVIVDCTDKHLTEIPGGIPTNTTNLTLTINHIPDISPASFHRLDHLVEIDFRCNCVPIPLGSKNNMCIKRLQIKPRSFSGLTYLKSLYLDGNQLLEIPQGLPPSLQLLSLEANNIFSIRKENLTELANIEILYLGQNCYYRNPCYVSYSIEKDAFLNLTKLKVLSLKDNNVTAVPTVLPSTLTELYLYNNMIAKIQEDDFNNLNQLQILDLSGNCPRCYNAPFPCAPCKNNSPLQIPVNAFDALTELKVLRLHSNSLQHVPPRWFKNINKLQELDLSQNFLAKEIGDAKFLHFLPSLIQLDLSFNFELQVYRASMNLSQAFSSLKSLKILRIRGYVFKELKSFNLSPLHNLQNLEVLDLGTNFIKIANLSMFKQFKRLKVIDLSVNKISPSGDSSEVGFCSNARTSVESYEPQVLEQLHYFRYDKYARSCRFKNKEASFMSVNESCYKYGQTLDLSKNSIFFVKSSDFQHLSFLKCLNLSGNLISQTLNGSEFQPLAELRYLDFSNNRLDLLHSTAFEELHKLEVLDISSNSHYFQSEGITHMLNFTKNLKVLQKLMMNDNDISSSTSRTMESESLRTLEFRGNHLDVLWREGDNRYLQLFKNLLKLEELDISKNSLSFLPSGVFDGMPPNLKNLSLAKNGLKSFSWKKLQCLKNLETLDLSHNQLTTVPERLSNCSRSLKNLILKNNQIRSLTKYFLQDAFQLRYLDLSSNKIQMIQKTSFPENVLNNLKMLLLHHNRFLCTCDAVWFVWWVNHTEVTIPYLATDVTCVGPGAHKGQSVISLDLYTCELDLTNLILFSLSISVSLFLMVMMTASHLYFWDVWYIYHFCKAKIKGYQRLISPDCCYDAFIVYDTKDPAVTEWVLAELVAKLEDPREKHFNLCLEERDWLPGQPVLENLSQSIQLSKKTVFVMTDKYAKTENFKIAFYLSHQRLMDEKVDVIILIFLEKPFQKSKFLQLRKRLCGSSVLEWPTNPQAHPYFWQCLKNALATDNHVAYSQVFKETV
In words: TLR7 inhibition reporter assay (HEK-Blue cells, SEAP reporter, gardiquimod stimulation). To be noted: HEK-Blue cells overexpressing human TLR7, SEAP reporter, gardiquimod 7.5 μM. An outline of the steps:
as §1

The term pIC50 denotes the IC50 on a negative log10 scale, so that one unit is a factor of ten. Low readings indicate a high IC50, high ones a low IC50. For the compound `CCc1c(-c2ccnc3[nH]ncc23)[nH]c2ccc(C3CCN(CC(N)=O)CC3)cc12` [Example 289, 2-(4-(3-ethyl-2-(1H-pyrazolo[3,4-b]pyridin-4-yl)-1H-indol-5-yl)piperidin-1-yl)acetamide], the pIC50 at human TLR8 was over 7.00; on human TLR9, 4.30 to 6.00; against human TLR7 it was over 7.00.

As to `CC(C)c1c(-c2cnc3ncccn23)[nH]c2ccc(C3CCN(CC(=O)N(C)C)CC3)cc12` [Example 290, 2-(4-(2-(imidazo[1,2-a]pyrimidin-3-yl)-3-isopropyl-1H-indol-5-yl)piperidin-1-yl)-N,N-dimethylacetamide], the pIC50 against human TLR8 is over 7.00; against human TLR9, 4.30 to 6.00; against human TLR7, 6.00 to 7.00.

Take `Cc1cc(-c2[nH]c3ccc(C4CCN(CC(=O)N(C)C)CC4)cc3c2C(C)C)cc2ocnc12` [Example 291, 2-(4-(3-isopropyl-2-(4-methylbenzo[d]oxazol-6-yl)-1H-indol-5-yl)piperidin-1-yl)-N,N-dimethylacetamide]: the pIC50 is over 7.00 against human TLR8, 4.30 to 6.00 against human TLR9 and over 7.00 against human TLR7.

On to `COc1nc(-c2[nH]c3ccc(C4CCN(CC(=O)N(C)C)CC4)cc3c2C(C)C)cn2ncnc12` [Example 292, 2-(4-(3-isopropyl-2-(8-methoxy-[1,2,4]triazolo[1,5-a]pyrazin-6-yl)-1H-indol-5-yl)piperidin-1-yl)-N,N-dimethylacetamide], for which the pIC50 on human TLR8 is over 7.00; against human TLR9 it was 4.30 to 6.00; against human TLR7, over 7.00.

In the case of `CNC(=O)CN1CCC(c2ccc3[nH]c(-c4cn(C)c5ncccc45)c(C(C)C)c3c2)CC1` [Example 293, 2-(4-(3-isopropyl-2-(1-methyl-1H-pyrrolo[2,3-b]pyridin-3-yl)-1H-indol-5-yl)piperidin-1-yl)-N-methylacetamide], the negative logarithm of the IC50 (pIC50) against human TLR8 is over 7.00; at human TLR9, 4.30 to 6.00; against human TLR7, over 7.00.

As to `CC(C)c1c(-c2cn(C)c3ncccc23)[nH]c2ccc(C3CCN(CC(=O)N4CCOCC4)CC3)cc12` [Example 294, 2-(4-(3-isopropyl-2-(1-methyl-1H-pyrrolo[2,3-b]pyridin-3-yl)-1H-indol-5-yl)piperidin-1-yl)-1-morpholinoethan-1-one], the pIC50 on human TLR8 is over 7.00; at human TLR9, 4.30 to 6.00; against human TLR7 it was over 7.00.

As for `CC(C)c1c(-c2cn(C)c3ncccc23)[nH]c2ccc(C3CCN(CC(=O)N(C)C)CC3)cc12` [Example 295, 2-(4-(3-isopropyl-2-(1-methyl-1H-pyrrolo[2,3-b]pyridin-3-yl)-1H-indol-5-yl)piperidin-1-yl)-N,N-dimethylacetamide], the pIC50 was over 7.00 against human TLR8, 4.30 to 6.00 against human TLR9 and over 7.00 against human TLR7.

Turning to `CC(C)c1c(-c2cn(C)c3ncccc23)[nH]c2ccc(C3CCN(CC(N)=O)CC3)cc12` [Example 296, 2-(4-(3-isopropyl-2-(1-methyl-1H-pyrrolo [2,3-b]pyridin-3-yl)-1H-indol-5-yl)piperidin-1-yl)acetamide], the pIC50 at human TLR8 is over 7.00; against human TLR9, 4.30 to 6.00; against human TLR7 it was over 7.00.

As for `CC(C)c1c(-c2cn(C)c3c(=O)n(C)ccc23)[nH]c2ccc(C3CCN(CC(=O)N(C)C)CC3)cc12` [Example 297, 2-(4-(2-(1,6-dimethyl-7-oxo-6,7-dihydro-1H-pyrrolo[2,3-c]pyridin-3-yl)-3-isopropyl-1H-indol-5-yl)piperidin-1-yl)-N,N-dimethylacetamide], the pIC50 is over 7.00 against human TLR8, 4.30 to 6.00 on human TLR9 and over 7.00 at human TLR7.

As for `CC(C)c1c(-c2ccc3ncsc3c2)[nH]c2ccc(C3CCN(CC(=O)N(C)C)CC3)cc12` [Example 298, 2-(4-(2-(benzo[d]thiazol-6-yl)-3-isopropyl-1H-indol-5-yl)piperidin-1-yl)-N,N-dimethylacetamide], the negative logarithm of the IC50 (pIC50) against human TLR8 was over 7.00; on human TLR9 it was 4.30 to 6.00; against human TLR7, over 7.00.

As for `CC(C)c1c(-c2ccc3cnnn3c2)[nH]c2ccc(C3CCN(CC(=O)N(C)C)CC3)cc12` [Example 299, 2-(4-(2-([1,2,3]triazolo[1,5-a]pyridin-6-yl)-3-isopropyl-1H-indol-5-yl)piperidin-1-yl)-N,N-dimethylacetamide], the pIC50 against human TLR8, at human TLR9 and at human TLR7 was 6.00 to 7.00 each time.

As for `CNC(=O)CN1CCC(c2ccc3[nH]c(-c4ccc5cnnn5c4)c(C(C)C)c3c2)CC1` [Example 300, 2-(4-(2-([1,2,3]triazolo[1,5-a]pyridin-6-yl)-3-isopropyl-1H-indol-5-yl)piperidin-1-yl)-N-methylacetamide], the pIC50 on human TLR8 was 6.00 to 7.00; on human TLR9, 4.30 to 6.00; at human TLR7, 6.00 to 7.00.

Turning to `CC(C)c1c(-c2ccc3nnnn3c2)[nH]c2ccc(C3CCN(CC(=O)N(C)C)CC3)cc12` [Example 301, 2-(4-(3-isopropyl-2-(tetrazolo[1,5-a]pyridin-6-yl)-1H-indol-5-yl)piperidin-1-yl)-N,N-dimethylacetamide], the pIC50 is 6.00 to 7.00 at human TLR8, 4.30 to 6.00 against human TLR9 and over 7.00 against human TLR7.
